Assay results taken from patent publication US11318157B2, “6-6 bicyclic aromatic ring substituted nucleoside analogues for use as PRMT5 inhibitors” (Janssen Pharmaceutica NV, priority 2015, dated 2022).
Where two headings read alike, the source gives them in different places.

Experiments:
PRMT5-MEP50 enzyme [1] = target: T1, PRMT5-MEP50 enzyme (Homo sapiens, UniProt O14744); assay: In vitro assay 1a: high throughput mass spectrometer assay of SAH formation, 10 nM enzyme, 60 min; format: biochemical; settings: averaged values, PRMT5-MEP50, 10 nM enzyme, read-out: pIC50 Assay 1a (converted)
T1 construct: One virus expresses full length human PRMT5 with Flag-tag at N-terminus; Flag (N); purchased Charles River (Argenta); host or cells: insect cells (Sf9), baculovirus co-infection
T1 sequence (O14744 whole entry): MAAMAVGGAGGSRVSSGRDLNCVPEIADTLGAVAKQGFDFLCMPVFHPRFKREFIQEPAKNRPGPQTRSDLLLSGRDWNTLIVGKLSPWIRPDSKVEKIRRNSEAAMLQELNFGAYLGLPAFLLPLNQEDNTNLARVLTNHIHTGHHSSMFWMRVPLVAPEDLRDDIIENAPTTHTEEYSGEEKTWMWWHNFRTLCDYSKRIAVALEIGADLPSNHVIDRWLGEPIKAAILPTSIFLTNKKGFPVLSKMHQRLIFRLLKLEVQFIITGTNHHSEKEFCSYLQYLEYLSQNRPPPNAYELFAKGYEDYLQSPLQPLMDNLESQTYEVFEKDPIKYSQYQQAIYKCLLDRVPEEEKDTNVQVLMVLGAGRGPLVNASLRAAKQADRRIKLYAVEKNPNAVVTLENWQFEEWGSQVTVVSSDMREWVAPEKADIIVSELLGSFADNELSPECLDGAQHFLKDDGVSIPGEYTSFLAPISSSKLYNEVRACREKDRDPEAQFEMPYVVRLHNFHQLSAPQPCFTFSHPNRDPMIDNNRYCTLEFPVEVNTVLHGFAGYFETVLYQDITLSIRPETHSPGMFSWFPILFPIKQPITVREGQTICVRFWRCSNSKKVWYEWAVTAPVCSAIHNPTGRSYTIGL
T1 sequence (Q9BQA1 whole entry partner): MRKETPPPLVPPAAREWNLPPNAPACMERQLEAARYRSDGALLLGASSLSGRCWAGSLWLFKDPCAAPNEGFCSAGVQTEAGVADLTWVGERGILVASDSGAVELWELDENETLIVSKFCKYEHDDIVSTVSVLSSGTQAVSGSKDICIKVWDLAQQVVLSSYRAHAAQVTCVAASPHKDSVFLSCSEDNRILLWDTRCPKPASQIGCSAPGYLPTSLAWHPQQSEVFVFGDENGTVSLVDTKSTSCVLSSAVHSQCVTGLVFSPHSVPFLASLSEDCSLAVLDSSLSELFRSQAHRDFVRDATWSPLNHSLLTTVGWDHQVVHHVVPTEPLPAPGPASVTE
Text: (§1) Experimental Procedures In Vitro Assay (Assay 1a and 1b)
(§2) PRMT5-MEP50 enzyme was purchased from Charles River (Argenta). The enzyme complex was produced in insect cells (Sf9) infected simultaneously with two baculoviruses. One virus expresses full length human PRMT5 with Flag-tag at N-terminus, the second virus expresses full length MEP50 with His6-TEV cleavage at N-terminus. The protein was affinity purified using anti-Flag (M2) beads eluted with 3×FLAG peptide, followed by His-Select eluted with 0.5M imidazole. Eluted protein was then dialysed against tris-buffered saline (TBS) (pH 8.0) containing 20% glycerol and 3 mM dithiothreitol (DTT).
(§3) Full-length untagged human recombinant histone H2A (residues 1-130, Genbank Accession #NM_021052 MW=14.1 kDa) expressed in E. coli was purchased from Reaction Biology Corporation, Cat #HMT-11-146. Reagents used for making reaction buffer or stopping reaction were purchased including Tris base (Sigma Cat #T-1503), NaCl (Sigma Cat #RGF-3270), MgCl2 (Sigma Cat #M0250), DTTI (Invitrogen Cat #15508-013) and Formic Acid (Riedel deHaen, Cat #33015)
(§4) High Throughput Mass Spectrometer Assay
(§5) PRMT5 catalyzes the sequential methylations of the terminal nitrogen atoms on the guanidine groups of arginine residues within proteins using co-substrate S-adenosyl-L-methionine (AdoMet, SAM), forming mono-methyl (MMA), symmetric-dimethyl arginine (sDMA) and S-adenosyl-L-homocysteine (AdoHcy, SAH). The enzyme activity was determined by following the product SAH formation using high throughput mass spectrometry (Agilent Rapidfire 300 System coupled to a Sciex 4000 series QTrap® triple-quad MS/MS). The reaction buffer was 20 mM Tris-HCl, pH 8.5, 50 mM NaCl, 5 mM MgCl2 and 1 mM DTT. The reaction activity was stopped using 1% formic acid (final concentration).
(§6) The IC50 Studies were performed using eleven point dosing series made for each compound by serially diluted 1:2 in dimethyl sulfoxide (DMSO), with point 12 being a DMSO control. Compounds were first spotted to plates, and followed by addition of 2 μM SAM and 0.6 μM H2A (histone H2A) solution mixture. The same volume of enzyme solution was added to initiate the enzymatic reactions. The final concentrations of the reaction are at 1 μM SAM, 0.3 μM H2A and 10 nM enzyme (assay 1a) or 1.25 nM enzyme (assay 1b). The reaction was incubated at 30° C. for 60 minutes (min) when 10 nM enzyme was used and for 120 min when 1.25 nM enzyme was used. Subsequently, the reaction was quenched by addition of formic acid to a final concentration of 1%. The inhibitions of SAH formation in the presence of compounds were calculated as a percentage of the control relative to the uninhibited reaction as a function of inhibitor concentration. The data were fit as follows: Y=Bottom+(Top−Bottom)/(1+10^((log IC50−X)*h))
(§7) where IC50 is the inhibitor concentration (same unit as X) at 50% inhibition and h is the Hill slope. Y is percent of inhibition, X is log of compound concentration. Bottom and Top are the plateaus in same units as Y.

[2] = test system: nuclear symmetric Arginine dimethylation in A549 cells; assay: PD assay (assay 2): inhibition of nuclear symmetric Arginine dimethylation (SYM10 immunohistochemistry), 48 h; format: cell-based; settings: for pIC50 Assay 2: averaged values; for IC50: Homo sapiens
Description: Experimental Procedure PD Assay (Assay 2)
A549 cells (ATCC, Cat #CCL-185) were cultured in Dulbecco's Modified Eagle's Medium (DMEM) (Sigma, Cat #D5796), supplemented with 10% Fetal Calf Serum (FCS) (HyClone™, Cat #SV30160.03), 100 mM Sodium Pyruvate (Sigma, Cat #S8636), 200 mM L-Glutamine (Sigma, Cat #G7513) and 50 mg/mL gentamycin (Gibco, Cat #15750-037).
Reagents used for buffers were purchased: Dulbecco's phosphate buffered saline (DPBS) without Ca/Mg (Sigma, Cat #D8537), phosphate buffered saline (PBS) 10× (Roche, Cat #11 666 789 001), Formalin solution 10% (Sigma, HT50-1-128-4L), Methanol 100% (Sigma, Cat #32213-2.5L), Triton X-100 (Acros, Cat #215680010), Bovine Serum Albumin (BSA) (Sigma, Cat #A2153), Alexa fluor 488 goat anti-rabbit antibody (Life Technologies, Cat #A11034), HCS CellMask Deep Red Stain (Life Technologies, Cat #H32721), Hoechst Stain (Life Technologies, Cat #33258), Anti-dimethyl-Arginine, sym (SYM10) antibody (Millipore, 07-412).
Immunohistochemistry Procedure
Cells were plated at 400 cells/40 μL/well in 384 well black μplates clear bottom (Perkin Elmer) and overnight incubated at 37° C., 5% CO2. […] 80 nL of the respective dilution of the compounds was added using the Labcyte POD 810 (Labcyte) reaching a final DMSO concentration of 0.2% in cell culture. After an incubation period of 48 h at 37° C. and 5% CO2, cells were fixed in 10% formalin solution for 15 min at room temperature and 20 min in ice-cold methanol, after which they were washed 3× in DPBS. Subsequently, the cells were blocked for 1 h in blocking buffer (PBS+1% BSA and 0.5% Triton X-100) and incubated overnight at 4° C. with the SYM10 antibody diluted 1/2000 in blocking buffer. The cells were washed 3× with washing buffer (PBS+0.1% Triton X-100) and incubated with the Alexa fluor 488 goat anti-rabbit antibody diluted 1/200 in blocking buffer for 1 h at room temperature. Subsequently, they were washed 3× with washing buffer and incubated for 30 min at room temperature with PBS containing a 1/5000 dilution of Hoechst Stain and a 1/5000 dilution of the HCS CellMask Deep Red Stain. After a final wash with PBS, the plates were imaged using the 10×W lens of the Opera® system (Perkin Elmer Life Sciences) using following settings (values in nm):
In the above equations, the following variable names are used: […]
In the above equations, the following controls were used for normalization: […]
Low control: minimum level of symmetrically dimethylated Arginines (cells treated with reference compound at 10 μM).
High control: maximum level of symmetrically dimethylated Arginines (DMSO treated cells).
IC50 and pIC50 (−log IC50) values were calculated using the appropriate software.
The pIC50 values in the Table below are averaged values (Co. No. means compound number; n.d. means not determined).

PRMT5-MEP50 enzyme [3] = target: T1, PRMT5-MEP50 enzyme; assay: In vitro assay 1b: high throughput mass spectrometer assay of SAH formation, 1.25 nM enzyme, 120 min; format: biochemical; settings: averaged values; PRMT5-MEP50, 1.25 nM enzyme, 120 min; read-out: pIC50 Assay 1b (converted)
Text: as §1, §2, §3, §4, §5, §6, §7

[4] = PD assay, A549 cells, symmetric Arginine dimethylation
[5] = A549, averaged values, PD assay, A549 cells, symmetric Arginine dimethylation, read-out: pIC50 Assay 2 (converted)

| Structure (SMILES) | IC50 (PRMT5-MEP50 enzyme [1]) | pIC50 Assay 2 [2, 4] | IC50 (PRMT5-MEP50 enzyme [3]) | IC50 [2, 5] | IC50 ([2]; A549, read-out: pIC50 Assay 2 (converted)) |
| --- | --- | --- | --- | --- | --- |
| CC(Oc1ccc2cccnc2c1)[C@H]1O[C@@H](n2ccc3c(N)ncnc32)[C@H](O)[C@@H]1O (single isomer, unassigned) [Compound 67] | 100 nM | 6.5 | – | – | – |
| CC(Oc1ccc2cccnc2c1)[C@H]1O[C@@H](n2ccc3c(N)ncnc32)[C@H](O)[C@@H]1O (single isomer, unassigned) [Compound 68] | 2510 nM | ~5.14 | > 100000 nM | – | – |
| Nc1nc(Cl)nc2c1ccn2[C@@H]1O[C@H](COc2ccc3cc(Cl)cnc3c2)[C@@H](O)[C@H]1O [Compound 4] | 63.1 nM | – | 200 nM | ~617 nM | – |
| Nc1ncnc2c1ccn2[C@@H]1O[C@H](COc2cccc3cnccc23)[C@@H](O)[C@H]1O [Compound 6] | 3160 nM | – | 5010 nM | > 10000 nM | – |
| Nc1ncnc2c1ccn2[C@@H]1O[C@H](COc2cccc3ccncc23)[C@@H](O)[C@H]1O [Compound 7] | 1260 nM | – | – | ~17400 nM | – |
| Nc1ncnc2c1ccn2[C@@H]1O[C@H](COc2cccc3cccnc23)[C@@H](O)[C@H]1O [Compound 8] | 6310 nM | – | 12600 nM | > 10000 nM | – |
| Nc1ncnc2c1ccn2[C@@H]1O[C@H](COc2ccc3ccccc3c2)[C@@H](O)[C@H]1O [Compound 9] | 3160 nM | – | – | > 20000 nM | – |
| Nc1ncnc2c1ccn2[C@@H]1O[C@H](COc2ccc3ccc(Cl)nc3c2)[C@@H](O)[C@H]1O [Compound 20] | 2000 nM | – | – | 6310 nM | – |
| COc1cc2c(Cl)ccnc2cc1OC[C@H]1O[C@@H](n2ccc3c(N)ncnc32)[C@H](O)[C@@H]1O [Compound 36] | 7940 nM | – | – | > 20000 nM | – |
| Cc1c(OC[C@H]2O[C@@H](n3ccc4c(N)ncnc43)[C@H](O)[C@@H]2O)ccc2cccnc12 [Compound 39] | 2510 nM | – | – | 2000 nM | – |
| Nc1ncnc2c1c(Br)cn2[C@@H]1O[C@H](COc2ccc3cccnc3c2)[C@@H](O)[C@H]1O [Compound 45] | 251 nM | – | – | 631 nM | – |
| Nc1ncnc2c1ccn2[C@@H]1O[C@H](CSc2ccc3cccnc3c2)[C@@H](O)[C@H]1O [Compound 48] | 100 nM | – | – | 398 nM | – |
| Nc1ncnc2c1ccn2[C@@H]1C[C@H](/C=C/c2ccc3cc(Cl)cnc3c2)[C@@H](O)[C@H]1O [Compound 57] | 31.6 nM | – | – | ~151 nM | – |
| Nc1ccc2ccc(CC[C@H]3C[C@@H](n4ccc5cncnc54)[C@H](O)[C@@H]3O)cc2n1 [Compound 77] | 0.501 nM | – | – | < 1.17 nM | – |
| CNc1ncnc2c1ccn2[C@@H]1C[C@H](CCc2ccc3ccc(N)nc3c2)[C@@H](O)[C@H]1O [Compound 78] | 1.26 nM | – | – | – | 0.316 nM |
| COc1ncnc2c1ccn2[C@@H]1C[C@H](CCc2ccc3ccc(N)nc3c2)[C@@H](O)[C@H]1O [Compound 79] | 0.398 nM | – | – | < 1.17 nM | – |
| Nc1nc2cc(CC[C@H]3C[C@@H](n4ccc5c(N)ncnc54)[C@H](O)[C@@H]3O)ccc2cc1Cl [Compound 81] | 0.251 nM | – | – | 0.2 nM | – |
| Nc1ncnc2c1ccn2[C@@H]1O[C@H](COc2cc3ncc(Br)cc3cc2Cl)[C@@H](O)[C@H]1O [Compound 92] | 63.1 nM | – | – | 794 nM | – |
| Nc1ncnc2c1ccn2[C@@H]1O[C@H](COc2ccc3cc(Br)cnc3c2Cl)[C@@H](O)[C@H]1O [Compound 94] | 1000 nM | – | – | ~1000 nM | – |
| CNC(=O)c1ccc2ccc(OC[C@H]3O[C@@H](n4ccc5c(N)ncnc54)[C@H](O)[C@@H]3O)cc2n1 [Compound 246] | 3160 nM | – | – | > 20000 nM | – |

Second part, led by results:

| IC50 (PRMT5-MEP50 enzyme [1]) | pIC50 Assay 2 [2, 4] | IC50 (PRMT5-MEP50 enzyme [3]) | IC50 [2, 5] | Structure (SMILES) | IC50 ([2]; A549, read-out: pIC50 Assay 2 (converted)) |
| --- | --- | --- | --- | --- | --- |
| 7.94 nM | – | 25.1 nM | 39.8 nM | Nc1ncnc2c1ccn2[C@@H]1O[C@H](COc2ccc3cc(Br)cnc3c2)[C@@H](O)[C@H]1O [Compound 2] | – |
| 39.8 nM | – | 158 nM | 631 nM | Nc1ncnc2c1ccn2[C@@H]1O[C@H](COc2cc3ncccc3cc2I)[C@@H](O)[C@H]1O [Compound 3] | – |
| 2000 nM | – | 5010 nM | > 10000 nM | Nc1ncnc2c1ccn2[C@@H]1O[C@H](COc2cccc3ncccc23)[C@@H](O)[C@H]1O [Compound 5] | – |
| 3160 nM | – | 3980 nM | ~7080 nM | Nc1ncnc2c1ccn2[C@@H]1O[C@H](COc2cnc3ccccc3c2)[C@@H](O)[C@H]1O [Compound 10] | – |
| 3160 nM | – | 7940 nM | > 10000 nM | Nc1ncnc2c1ccn2[C@@H]1O[C@H](COc2ccc3ncccc3c2)[C@@H](O)[C@H]1O [Compound 11] | – |
| 1580 nM | – | 3980 nM | > 10000 nM | Nc1ncnc2c1ccn2[C@@H]1O[C@H](COc2ccc3cnccc3c2)[C@@H](O)[C@H]1O [Compound 12] | – |
| 794 nM | – | 2000 nM | 15800 nM | Nc1ncnc2c1ccn2[C@@H]1O[C@H](COc2ccc3ccncc3c2)[C@@H](O)[C@H]1O [Compound 13] | – |
| 1260 nM | – | – | > 20000 nM | Nc1ncnc2c1ccn2[C@@H]1O[C@H](COc2cnc3cccnc3c2)[C@@H](O)[C@H]1O [Compound 14] | – |
| 1000 nM | – | – | > 3980 nM | Nc1ncnc2c1ccn2[C@@H]1O[C@H](COc2ccc3nccnc3c2)[C@@H](O)[C@H]1O [Compound 15] | – |
| 20 nM | – | – | – | C=Cc1cnc2cc(OC[C@H]3O[C@@H](n4ccc5c(N)ncnc54)[C@H](O)[C@@H]3O)ccc2c1 [Compound 253] | – |
